# Laboratory results taken from paper PMC11111691, “Cystine-knot peptide inhibitors of HTRA1 bind to a cryptic pocket within the active site region” (Nature Communications, 2024).
# “Also recorded” adds a separate entry of the source. Positions of bridges follow the written chain, without caps; N, C: chain ends. Residues, ends and D or L forms follow the SMILES beside them. No end group written: not given here.
# Columns and labels:
# CKP stability assay = format: physicochemical; conditions: chemical stability, PBS containing 0.15% DMSO, 0.3 mM (~1 mg/ml), 37 °C, LC-MS, HPLC UV 220 nm peak area normalized to DMSO peak, two independent experiments, preliminary
# Protocol: The CKPs 1G10 and 1G10-ENI were incubated in PBS containing 0.15% DMSO at a concentration of 0.3 mM (~1 mg/ml) at 37 °C for 30 days. Samples from two independently performed experiments were frozen at −20 °C until further analysis. Thawed samples were diluted in H2O and injected into LC-MS (Agilent). From the HPLC UV trace (at 220 nm) the CKP peak area was normalized to the DMSO peak area from the same run. The values obtained from multiple HPLC runs were averaged and shown as dot plot.
# HTRA1^PD(SA) = target: T1, HTRA1^PD(SA) (Homo sapiens, UniProt Q92743, S328A); assay: SPR binding kinetics to HTRA1^PD(SA); conditions: mean ± S.D. of three or more independent experiments
# T1 construct: The protease domains of human HTRA1 (HTRA1^PD; D161-K379); made in house; host or cells: E. coli
# T1 sequence (Q92743 161-379 S328A): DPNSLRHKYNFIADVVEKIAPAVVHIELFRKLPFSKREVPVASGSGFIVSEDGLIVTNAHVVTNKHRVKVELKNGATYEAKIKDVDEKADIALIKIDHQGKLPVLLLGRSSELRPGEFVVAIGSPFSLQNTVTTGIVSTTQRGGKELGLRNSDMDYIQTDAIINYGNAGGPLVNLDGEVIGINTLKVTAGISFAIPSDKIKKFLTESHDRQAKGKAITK
# Protocol: Surface plasmon resonance (SPR) experiments were performed using a Biacore S200 instrument at 25 °C. His-tagged HTRA proteins were captured on a CM5 sensor chip using the His-capture kit (GE Healthcare). Protein concentrations used for immobilization were as follows; HTRA1^PD(SA), HTRA1^PD and HTRA1^PD-ABP 2 µg/ml with 60-s injections at 10 µl/min, HTRA2^PD/PDZ, HTRA3^PD/PDZ, and HTRA4^PD/PDZ 4 µg/ml with 60-s injections at 10 µl/min. Approximate immobilization levels of HTRA proteins were as follows; HTRA1^PD(SA) 700 RU, HTRA1^PD 900 RU, HTRA1^PD-ABP 900 RU, HTRA2^PD/PDZ 500 RU, HTRA3^PD/PDZ 500 RU, HTRA4^PD/PDZ 500 RU. All CKPs were prepared in HBS-EP buffer (0.01 M HEPES pH 7.4, 0.15 M NaCl, 3 mM EDTA, 0.005% v/v Surfactant P20). All CKP concentrations were injected for 120 s at a flow rate of 30 μl/min. A reference channel was subtracted from the HTRA-captured channel.
# Binding kinetics of peptides to HTRA1^PD(SA) were determined by flowing six serial three-fold dilutions of peptide over the HTRA1^PD(SA) immobilized surface using a single cycle kinetics model. CKP maximum concentrations were as follows: 1A7, 1A8, 1C10, 2D5, and 3A7, 300 nM; 1G10-ENI and 1D3-ENI, 100 nM; 3B3, 3000 nM; and CPI, 10,000 nM. Data were analyzed using GE BIA evaluation software using a 1:1 Langmuir binding model. The KD values, calculated from the determined kon and koff values, were the mean ± S.D. of 3–4 independent experiments.
# HTRA4^PD/PDZ, HTRA4^FL = target: T2, HTRA4^PD/PDZ, HTRA4^FL (Homo sapiens, UniProt P83105); assay: H2-OPT selectivity assay, HTRA4; format: biochemical; conditions: 6 nM HTRA4^FL, 2 µM CKP; p<0.001 vs DMSO
# T2 construct: purchased Abcam (FL form); the PD/PDZ form was made in house in E. coli ab134444
# T2 sequence (P83105 32-476): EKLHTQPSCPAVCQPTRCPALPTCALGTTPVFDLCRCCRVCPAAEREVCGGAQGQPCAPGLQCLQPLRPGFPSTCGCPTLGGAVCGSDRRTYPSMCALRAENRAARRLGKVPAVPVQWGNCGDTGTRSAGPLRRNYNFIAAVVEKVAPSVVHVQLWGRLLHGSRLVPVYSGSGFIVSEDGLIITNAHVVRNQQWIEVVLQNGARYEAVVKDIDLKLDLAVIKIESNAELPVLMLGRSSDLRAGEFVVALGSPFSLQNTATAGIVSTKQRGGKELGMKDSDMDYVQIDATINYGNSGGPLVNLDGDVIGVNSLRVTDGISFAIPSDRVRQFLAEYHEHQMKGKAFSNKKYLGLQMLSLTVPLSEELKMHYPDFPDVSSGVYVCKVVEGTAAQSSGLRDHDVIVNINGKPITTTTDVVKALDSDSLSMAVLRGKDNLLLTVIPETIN
# Protocol: (§1) Assays with the fluorescence-quenched synthetic substrate Mca-IRRVSYSFK(Dnp)K (H2-OPT)[38],[60] were carried out essentially as described. CKP stock solutions in DMSO were diluted in TNC buffer (dilution series for IC50 determinations, or final concentration of 2 µM for selectivity assay or as indicated for HTRA1/4 mutants) and incubated with enzymes in 96-well black optical bottom plates for 60 min at 37 °C. For selectivity experiments we used the 7mer-ABP as inhibitor, which was incubated with the proteases for 15 min at 37 °C. A 10 mM stock solution of H2-OPT in DMSO was diluted with water, prewarmed at 37 °C and then added to the CKP-enzyme mixtures. The final concentrations in the reaction mixtures were: 1 nM HTRA1^FL, 3 nM HTRA1^PD/PDZ, 1 nM HTRA1^PD, 1 nM HTRA2^PD/PDZ, 3 nM HTRA3^FL, 60 nM HTRA3^PD/PDZ, 6 nM HTRA4^FL, 1 µM HTRA4^PD/PDZ, 1 nM mouse HTRA1^PD, 25 nM HTRA1^PD-A202Y, 1 µM HTRA4^PD/PDZ-Y200A, 0.5 mM 7mer-ABP, 5 µM H2-OPT, and 0.25% DMSO. The kinetics of substrate cleavage was measured at 37 °C on a SpectraMax M5 microplate reader with excitation of 328 nm and emission of 393 nm. The determined initial rates of cleavage were expressed as percent of control (DMSO control) after subtracting the baseline rates (without enzyme). IC50 values were determined by Sigmoidal 4PL modeling of multiple data points from serial dilutions of CKPs using Prism 9 software (GraphPad). For selectivity assays with HTRA1-4^PD/PDZ constructs, the specific activities of the enzymes and enzyme:CKP inhibitor ratios were as follows: HTRA1^PD/PDZ, 12560 mRFU/min/nM – 1:667; HTRA2^PD/PDZ, 32300 mRFU/min/nM – 1:2000; HTRA3^PD/PDZ, 962 mRFU/min/nM – 1:33; HTRA4^PD/PDZ, 18 mRFU/min/nM – 1:2.
# HTRA1^FL = target: T3, HTRA1^FL (Homo sapiens, UniProt Q92743); assay: HTRA1^FL enzyme inhibition assay with synthetic substrate H2-OPT; format: biochemical
# T3 construct: Human full-length HTRA1 (HTRA1^FL, Q23-P480); made in house; host or cells: Trichoplusia ni cells
# T3 sequence (Q92743 23-480): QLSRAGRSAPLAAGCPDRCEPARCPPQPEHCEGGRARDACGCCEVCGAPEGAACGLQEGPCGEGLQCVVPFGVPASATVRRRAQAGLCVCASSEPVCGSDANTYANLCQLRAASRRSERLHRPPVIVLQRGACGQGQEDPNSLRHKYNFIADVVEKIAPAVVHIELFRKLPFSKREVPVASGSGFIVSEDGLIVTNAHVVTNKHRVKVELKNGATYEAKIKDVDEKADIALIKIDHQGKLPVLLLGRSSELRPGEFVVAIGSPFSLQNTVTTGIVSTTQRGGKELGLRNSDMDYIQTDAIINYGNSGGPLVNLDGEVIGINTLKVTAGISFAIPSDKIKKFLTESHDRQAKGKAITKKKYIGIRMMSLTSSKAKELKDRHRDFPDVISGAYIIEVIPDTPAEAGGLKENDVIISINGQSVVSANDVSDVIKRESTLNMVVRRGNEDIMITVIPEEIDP
# Protocol: as §1
# [1] = SPR Biacore S200, 25 °C, single cycle kinetics, 1:1 Langmuir model
# [2] = SPR, calculated from kon and koff, CPI up to 10 µM
molecule,measurement,setting,value
"YPVDPICNKPCKTHDDCSGAWFCQTCYYATWSCGWGLRQID-NH2 (disulfide 7-23, 11-26, 17-33) [1G10]",Stability: intact peptide after 30 days,CKP stability assay,no change in peptide mass at 30 days; also recorded: highly stable
"CC[C@H](C)[C@H](NC(=O)[C@H](CCC(N)=O)NC(=O)[C@H](CCCNC(=N)N)NC(=O)[C@H](CC(C)C)NC(=O)CNC(=O)[C@H](Cc1c[nH]c2ccccc12)NC(=O)CNC(=O)[C@@H]1CSSC[C@@H]2NC(=O)[C@H](CC(=O)O)NC(=O)[C@H](CC(=O)O)NC(=O)[C@H](Cc3c[nH]cn3)NC(=O)[C@H]([C@@H](C)O)NC(=O)[C@H](CCCCN)NC(=O)[C@@H]3CSSC[C@H](NC(=O)[C@H]([C@@H](C)O)NC(=O)[C@H](CCC(N)=O)NC(=O)[C@H](CSSC[C@H](NC(=O)[C@@H](NC(=O)[C@@H]4CCCN4C(=O)[C@H](CC(=O)O)NC(=O)[C@H](C)NC(=O)[C@@H](N)Cc4c[nH]cn4)[C@@H](C)CC)C(=O)N[C@@H](CC(N)=O)C(=O)N[C@@H](CCCCN)C(=O)N4CCC[C@H]4C(=O)N3)NC(=O)[C@H](Cc3ccccc3)NC(=O)[C@H](Cc3c[nH]c4ccccc34)NC(=O)[C@H](C)NC(=O)CNC(=O)[C@H](CO)NC2=O)C(=O)N[C@@H](Cc2ccc(O)cc2)C(=O)N[C@@H](Cc2ccc(O)cc2)C(=O)N[C@@H](C)C(=O)N[C@@H]([C@@H](C)O)C(=O)N[C@@H](Cc2c[nH]c3ccccc23)C(=O)N[C@@H](CO)C(=O)N1)C(=O)N[C@@H](CC(=O)O)C(N)=O [1A8] (H-HADPICNKPCKTHDDCSGAWFCQTCYYATWSCGWGLRQID-NH2; disulfide 6-22, 10-25, 16-32)",koff,HTRA1^PD(SA); [1],0.5 ± 0.1 s-1 x10-4
same,kon,HTRA1^PD(SA); [1],8.2 ± 3.5 M-1 s-1 x104
same,Kd,HTRA1^PD(SA); [2],0.66 ± 0.42 nM
same,"Reduction of HTRA4^FL activity, H2-OPT","HTRA4^PD/PDZ, HTRA4^FL",13%
same,IC50,HTRA1^FL,1.9 ± 0.15 nM
"CC[C@H](C)[C@H](NC(=O)[C@@H]1CCCN1C(=O)[C@H](CC(=O)O)NC(=O)[C@H](C)NC(=O)[C@@H](N)Cc1c[nH]cn1)C(=O)N[C@H]1CSSC[C@@H]2NC(=O)[C@H](Cc3ccccc3)NC(=O)[C@H](Cc3c[nH]c4ccccc34)NC(=O)[C@H](C)NC(=O)CNC(=O)[C@H](CO)NC(=O)[C@@H]3CSSC[C@@H](C(=O)NCC(=O)N4CCC[C@H]4C(=O)N[C@@H](Cc4ccc(O)cc4)C(=O)N[C@H](C(=O)NCC(N)=O)C(C)C)NC(=O)[C@H]([C@@H](C)O)NC(=O)[C@H](CCCNC(=N)N)NC(=O)[C@H](C)NC(=O)[C@H](CO)NC(=O)[C@H](CC(N)=O)NC(=O)[C@H](Cc4c[nH]c5ccccc45)NC(=O)[C@H](CSSC[C@H](NC(=O)[C@@H]4CCCN4C(=O)[C@H](CCCCN)NC(=O)[C@H](CC(N)=O)NC1=O)C(=O)N[C@@H](CCCCN)C(=O)N[C@@H]([C@@H](C)O)C(=O)N[C@@H](Cc1c[nH]cn1)C(=O)N[C@@H](CC(=O)O)C(=O)N[C@@H](CC(=O)O)C(=O)N3)NC(=O)[C@H](C)NC(=O)[C@H](CCC(N)=O)NC2=O [CPI, reference compound] (H-HADPICNKPCKTHDDCSGAWFCQACWNSARTCGPYVG-NH2; disulfide 6-22, 10-25, 16-32)",KD,HTRA1^PD(SA); [2],No binding
same,Inhibition of HTRA1^FL activity (inhibition curves),"HTRA1^FL; H2-OPT substrate, Fig. 1b",no activity
"CC[C@H](C)[C@H](NC(=O)[C@H](CCC(N)=O)NC(=O)[C@H](CCCNC(=N)N)NC(=O)[C@H](CC(C)C)NC(=O)CNC(=O)[C@H](Cc1c[nH]c2ccccc12)NC(=O)CNC(=O)[C@@H]1CSSC[C@@H]2NC(=O)[C@H](CC(=O)O)NC(=O)[C@H](CC(=O)O)NC(=O)[C@H](Cc3c[nH]cn3)NC(=O)[C@H]([C@@H](C)O)NC(=O)[C@H](CCCCN)NC(=O)[C@@H]3CSSC[C@H](NC(=O)[C@H]([C@@H](C)O)NC(=O)[C@H](CCC(N)=O)NC(=O)[C@H](CSSC[C@H](NC(=O)[C@@H](NC(=O)[C@@H]4CCCN4C(=O)[C@H](CC(=O)O)NC(=O)[C@H](C)NC(=O)[C@@H](N)Cc4c[nH]cn4)[C@@H](C)CC)C(=O)NCC(=O)N[C@@H](Cc4c[nH]cn4)C(=O)N[C@@H](CCC(N)=O)C(=O)N3)NC(=O)[C@H](Cc3ccccc3)NC(=O)[C@H](Cc3c[nH]c4ccccc34)NC(=O)[C@H](C)NC(=O)CNC(=O)[C@H](CO)NC2=O)C(=O)N[C@@H](Cc2ccc(O)cc2)C(=O)N[C@@H](Cc2ccc(O)cc2)C(=O)N[C@@H](C)C(=O)N[C@@H]([C@@H](C)O)C(=O)N[C@@H](Cc2c[nH]c3ccccc23)C(=O)N[C@@H](CO)C(=O)N1)C(=O)N[C@@H](CC(=O)O)C(N)=O [1A8.L1.2] (H-HADPICGHQCKTHDDCSGAWFCQTCYYATWSCGWGLRQID-NH2; disulfide 6-22, 10-25, 16-32)",IC50,HTRA1^FL,3.2 ± 0.1 nM
